Test results taken from BindingDB's records for doi:10.1021/acs.jmedchem.9b02176 (Glaxosmithkline, 2020).

Tests used:
[1] = Inhibition of NS5A in HCV genotype 1a infected in […] cells assessed as reduction in viral replication incubated for 48 hrs by luciferase reporter gene assay
[2] = Inhibition of NS5A in HCV genotype 1b infected in […] cells assessed as reduction in viral replication incubated for 48 hrs by luciferase reporter gene assay
[3] = Inhibition of NS5A in HCV genotype 2a con infected in […] cells assessed as reduction in viral replication incubated for 48 hrs by luciferase reporter gene assay
[4] = Inhibition of NS5A in patient-derived HCV genotype 3a infected in […] cells assessed as reduction in viral replication incubated for 48 hrs by luciferase reporter gene assay
[5] = Inhibition of NS5A in patient-derived HCV genotype 2a infected in […] cells assessed as reduction in viral replication incubated for 48 hrs by luciferase reporter gene assay
[6] = Inhibition of NS5A in HCV genotype 3a con infected in […] cells assessed as reduction in viral replication incubated for 48 hrs by luciferase reporter gene assay

SMILES	EC50 [1] [pM]	EC50 [2] [pM]	EC50 [3] [pM]	EC50 [4] [pM]	EC50 [5] [pM]	EC50 [6] [pM]
COC(=O)N[C@H](C(=O)N1CCC[C@H]1c1ncc(-c2ccc3c(c2)-c2ccc(-c4cnc([C@@H]5CCCN5C(=O)[C@@H](c5ccccc5)N(C)C)[nH]4)cc2-3)[nH]1)C(C)C	53	14	1470			
COC(=O)N[C@H](C(=O)N1[C@H](c2ncc(-c3ccc4c(c3)-c3ccc(-c5cnc([C@@H]6C[C@@H]7CCC[C@@H]7N6C(=O)[C@@H](NC(=O)OC)[C@@H](C)OC)[nH]5)cc3-4)[nH]2)C[C@@H]2CCC[C@@H]21)[C@@H](C)O	14	8	188	6	1030	
COC(=O)N[C@@H](CO)C(=O)N1[C@H](c2ncc(-c3ccc4c(c3)-c3ccc(-c5cnc([C@@H]6C[C@@H]7CCC[C@@H]7N6C(=O)[C@H](CO)NC(=O)OC)[nH]5)cc3-4)[nH]2)C[C@@H]2CCC[C@@H]21	55	9	8910			
COC(=O)N[C@H](C(=O)N1CCC[C@H]1c1ncc(-c2ccc3c(c2)-c2ccc(-c4cnc([C@@H]5CCCN5C(=O)[C@@H](NC(=O)OC)C(C)C)[nH]4)cc2-3)[nH]1)C(C)C	44	8	32000	18	48800	< 25
COC(=O)N[C@H](C(=O)N1[C@H](c2ncc(-c3ccc4c(c3)Cc3cc(-c5cnc([C@@H]6C[C@@H]7CCC[C@@H]7N6C(=O)[C@@H](NC(=O)OC)[C@@H](C)OC)[nH]5)ccc3-4)[nH]2)C[C@@H]2CCC[C@@H]21)[C@@H](C)OC	41	22				
COC(=O)N[C@H](C(=O)N1[C@H](c2ncc(-c3ccc4c(c3)-c3ccc(-c5cnc([C@@H]6C[C@@H]7CCC[C@@H]7N6C(=O)[C@@H](NC(=O)OC)[C@@H](C)OC)[nH]5)cc3-4)[nH]2)C[C@@H]2CCC[C@@H]21)[C@@H](C)OC	10	8	115	3	664	20
COC(=O)N[C@H](C(=O)N1[C@H](c2ncc(-c3ccc4c(c3)-c3ccc(-c5cnc([C@@H]6C[C@@H]7CCC[C@@H]7N6C(=O)[C@@H](NC(=O)OC)[C@H](C)O)[nH]5)cc3-4)[nH]2)C[C@@H]2CCC[C@@H]21)[C@H](C)O	302	10	35100			
COC(=O)N[C@H](C(=O)N1[C@H](c2ncc(-c3ccc4c(c3)-c3ccc(-c5cnc([C@@H]6C[C@@H]7CCC[C@@H]7N6C(=O)[C@@H](NC(=O)OC)[C@@H](C)O)[nH]5)cc3-4)[nH]2)C[C@@H]2CCC[C@@H]21)C(C)C	13	6	970			
COC(=O)N[C@H](C(=O)N1[C@H](c2ncc(-c3ccc4c(c3)-c3ccc(-c5cnc([C@@H]6C[C@@H]7CCCC[C@@H]7N6C(=O)[C@@H](NC(=O)OC)C(C)C)[nH]5)cc3-4)[nH]2)C[C@@H]2CCCC[C@@H]21)C(C)C	20		3330			
COC(=O)N[C@H](C(=O)N1CCC[C@H]1c1ncc(-c2ccc3c(c2)-c2ccc(-c4cnc([C@@H]5C[C@@H]6CCCC[C@@H]6N5C(=O)[C@@H](NC(=O)OC)C(C)C)[nH]4)cc2-3)[nH]1)C(C)C	9		12200			
CN(C)[C@@H](C(=O)N1CCC[C@H]1c1ncc(-c2ccc3c(c2)-c2ccc(-c4cnc([C@@H]5CCCN5C(=O)[C@@H](c5ccccc5)N(C)C)[nH]4)cc2-3)[nH]1)c1ccccc1	248	81	327			
COC(=O)N[C@H](C(=O)N1[C@H](c2ncc(-c3ccc4c(c3)-c3ccc(-c5cnc([C@@H]6C[C@@H]7CCC[C@@H]7N6C(=O)[C@@H](NC(=O)OC)C(C)C)[nH]5)cc3-4)[nH]2)C[C@@H]2CCC[C@@H]21)C(C)C	10		4520			
COC(=O)N[C@H](C(=O)N1[C@H](c2ncc(-c3ccc4c(c3)Cc3ccc(-c5cnc([C@@H]6C[C@@H]7CCC[C@@H]7N6C(=O)[C@@H](NC(=O)OC)[C@@H](C)OC)[nH]5)cc3C4)[nH]2)C[C@@H]2CCC[C@@H]21)[C@@H](C)OC	30	20				
COC(=O)N[C@H](C(=O)N1[C@H](c2ncc(-c3ccc4c5ccc(-c6cnc([C@@H]7C[C@@H]8CCC[C@@H]8N7C(=O)[C@@H](NC(=O)OC)[C@@H](C)OC)[nH]6)cc5n(C)c4c3)[nH]2)C[C@@H]2CCC[C@@H]21)[C@@H](C)OC	148	28				
COC(=O)N[C@H](C(=O)N1[C@H](c2ncc(-c3ccc4c(c3)S(=O)(=O)c3cc(-c5cnc([C@@H]6C[C@@H]7CCC[C@@H]7N6C(=O)[C@@H](NC(=O)OC)[C@@H](C)OC)[nH]5)ccc3-4)[nH]2)C[C@@H]2CCC[C@@H]21)[C@@H](C)OC	81	28				
COC(=O)N[C@H](C(=O)N1[C@H](c2ncc(-c3ccc4c(c3)Oc3ccc(-c5cnc([C@@H]6C[C@@H]7CCC[C@@H]7N6C(=O)[C@@H](NC(=O)OC)[C@@H](C)OC)[nH]5)cc3O4)[nH]2)C[C@@H]2CCC[C@@H]21)[C@@H](C)OC	12	7				
COC(=O)N[C@H](C(=O)N1[C@H](c2ncc(-c3ccc4c(c3)-c3ccc(-c5cnc([C@@H]6C[C@@H]7CCC[C@@H]7N6C(=O)[C@@H](NC(=O)OC)[C@@H](C)O)[nH]5)cc3-4)[nH]2)C[C@@H]2CCC[C@@H]21)[C@@H](C)O	11		141	5	1060	18
COC(=O)N[C@H](C(=O)N1[C@H](c2ncc(-c3ccc4c(c3)C(F)(F)c3cc(-c5cnc([C@@H]6C[C@@H]7CCC[C@@H]7N6C(=O)[C@@H](NC(=O)OC)[C@@H](C)OC)[nH]5)ccc3-4)[nH]2)C[C@@H]2CCC[C@@H]21)[C@@H](C)OC	29	17				
COC(=O)N[C@H](C(=O)N1[C@H](c2ncc(-c3ccc4c(c3)CCc3cc(-c5cnc([C@@H]6C[C@@H]7CCC[C@@H]7N6C(=O)[C@@H](NC(=O)OC)[C@@H](C)OC)[nH]5)ccc3-4)[nH]2)C[C@@H]2CCC[C@@H]21)[C@@H](C)OC	17	15				
COC(=O)N[C@@H](CO)C(=O)N1[C@H](c2ncc(-c3ccc4c(c3)-c3ccc(-c5cnc([C@@H]6C[C@@H]7CCC[C@@H]7N6C(=O)[C@@H](NC(=O)OC)C(C)C)[nH]5)cc3-4)[nH]2)C[C@@H]2CCC[C@@H]21	20		4370			
COC(=O)N[C@H](C(=O)N1CCC[C@H]1c1nc(-c2ccc(-c3ccc(-c4c[nH]c([C@@H]5CCCN5C(=O)[C@@H](NC(=O)OC)C(C)C)n4)cc3)cc2)c[nH]1)C(C)C [BMS-790052]	32	8	52800	115	49400	412
